Values after ≈ are worked out from the molar mass of the structure shown. Like-named read-outs stand apart in the source and are kept apart here.
How the values were obtained:
[1] = test system: Corynebacterium pyogenes CY1; assay: MIC against veterinary bacteria in vitro; settings: CY1, 18 h
Procedure: (§1) The activity of the compounds of the Examples against various veterinarily important bacteria, was assayed in vitro using two-fold serial dilutions in Diagnostic Sensitivity Test Agar inoculated with 10^4 organisms.

[2] = test system: Bord. bronchiseptica B09; assay: MIC against veterinary bacteria in vitro; settings: Bordetella bronchiseptica, B09, 18 h
Procedure: as §1

[3] = test system: M. hyorhinis ATCC 23234; assay: MIC against mycoplasma in vitro; assay type: cell-based; settings: Mesomycoplasma hyorhinis, ATCC23234, 144 h
[4] = test system: P. mirabilis 889; assay: MIC against human bacteria in vitro; assay type: cell-based
[5] = test system: M. suipneumoniae J2206/183^b; assay: MIC against mycoplasma in vitro; assay type: cell-based; settings: Mesomycoplasma hyopneumoniae, 144 h
[6] = test system: Past. multocida PA1; assay: MIC against veterinary bacteria in vitro; settings: Pasteurella multocida, PA1, 18 h
Procedure: as §1

[7] = test system: Past. multocida PA2; assay: MIC against veterinary bacteria in vitro; settings: Pasteurella multocida, PA2, 18 h
Procedure: as §1

[8] = test system: Staph. aureus Russell; assay: MIC against human bacteria in vitro; assay type: cell-based; settings: Staphylococcus aureus; Staph. aureus Russell; 5% chocolated horse blood agar, 18 hours; read-out: MIC
[9] = test system: M. bovis NCTC 10131; assay: microbe, parasite or virus in culture; assay type: cell-based; settings: NCTC10131, 144 h
[10] = test system: Strep. pneumoniae CN33; assay: MIC against human bacteria in vitro; assay type: cell-based; settings: Streptococcus pneumoniae; Strep. pneumoniae CN33; 5% chocolated horse blood agar, 18 hours; read-out: MIC
[11] = test system: M. suipneumoniae TAM 6N; assay: MIC against mycoplasma in vitro; assay type: cell-based; settings: Mesomycoplasma hyopneumoniae, TAM6N, 144 h
[12] = test system: M. suipneumoniae NB12; assay: MIC against mycoplasma in vitro; assay type: cell-based; settings: Mesomycoplasma hyopneumoniae
[13] = test system: Corynebacterium xerosis 9755; assay: MIC against human bacteria in vitro; assay type: cell-based
[14] = test system: Staph. aureus W2827; assay: MIC against human bacteria in vitro; assay type: cell-based; settings: Staphylococcus aureus; Staph. aureus W2827; 5% chocolated horse blood agar, 18 hours; read-out: MIC
[15] = test system: M. hyosynoviae ATCC 25591; assay: MIC against mycoplasma in vitro; assay type: cell-based; settings: 144 h
[16] = test system: Strep. faecalis I; assay: MIC against human bacteria in vitro; assay type: cell-based; settings: Enterococcus faecalis
[17] = test system: Strep. dysgalactiae SPD1; assay: MIC against veterinary bacteria in vitro; settings: Streptococcus dysgalactiae, SPD1, 18 h
Procedure: as §1

[18] = test system: M. suipneumoniae MS 16; assay: MIC against mycoplasma in vitro; assay type: cell-based; settings: Mesomycoplasma hyopneumoniae, MS16, 144 h
[19] = test system: Sarcina lutea 8340; assay: MIC against human bacteria in vitro; assay type: cell-based
[20] = test system: Past. haemolytica PA5; assay: MIC against veterinary bacteria in vitro; settings: Mannheimia haemolytica, PA5, 18 h
Procedure: as §1

[21] = test system: Neisseria catarrhalis 1502; assay: MIC against human bacteria in vitro; assay type: cell-based
[22] = test system: M. suipneumoniae HK(2); assay: MIC against mycoplasma in vitro; assay type: cell-based; settings: Mesomycoplasma hyopneumoniae, 144 h
[23] = test system: Strep. agalactiae 2788-B; assay: MIC against human bacteria in vitro; assay type: cell-based; settings: Streptococcus agalactiae; Strep. agalactiae 2788-B; 5% chocolated horse blood agar, 18 hours; read-out: MIC
[24] = test system: M. suipneumoniae ATCC 25095; assay: MIC against mycoplasma in vitro; assay type: cell-based; settings: Mesomycoplasma hyopneumoniae, ATCC25095, 144 h
[25] = test system: Strep. suis (group D) SPS11; assay: MIC against veterinary bacteria in vitro; settings: Streptococcus suis, 18 h
Procedure: as §1

[26] = test system: Erysipelothrix rhusiopathiae NCTC 8163; assay: MIC against veterinary bacteria in vitro; settings: Erysipelothrix rhusiopathiae, NCTC8163, 18 h
Procedure: as §1

[27] = test system: Staph. aureus B4 (pen. resistant); assay: MIC against veterinary bacteria in vitro; settings: Staphylococcus aureus, 18 h
Procedure: as §1

[28] = test system: M. suipneumoniae LABER; assay: MIC against mycoplasma in vitro; assay type: cell-based; settings: Mesomycoplasma hyopneumoniae, 144 h
[29] = test system: M. bovigenitalium ATCC 14173; assay: MIC against mycoplasma in vitro; assay type: cell-based; settings: 144 h
[30] = test system: Haemophilus influenzae Wy21; assay: MIC against human bacteria in vitro; assay type: cell-based
[31] = test system: M. suipneumoniae UCD 1; assay: MIC against mycoplasma in vitro; assay type: cell-based; settings: Mesomycoplasma hyopneumoniae, UCD1, 144 h
[32] = test system: K. aerogenes A; assay: MIC against human bacteria in vitro; assay type: cell-based; settings: Klebsiella aerogenes
[33] = test system: Ps. aeruginosa NCTC 10662; assay: MIC against human bacteria in vitro; assay type: cell-based; settings: Pseudomonas aeruginosa
[34] = test system: Bord. bronchiseptica B08; assay: MIC against veterinary bacteria in vitro; settings: Bordetella bronchiseptica, B08, 18 h
Procedure: as §1

[35] = test system: M. hyorhinis ATCC 25021; assay: MIC against mycoplasma in vitro; assay type: cell-based; settings: Mesomycoplasma hyorhinis, ATCC25021, 144 h

Work on `COc1ccc(-c2cnc(/C=C(\C)C[C@@H]3OC[C@H](C[C@@H]4O[C@H]4[C@@H](C)[C@H](C)O)[C@@H](O)[C@H]3O)o2)cc1` [Example 4, 5-p-methoxyphenyl-2-(1-normon-2-yl)oxazole A] yielded an MIC [1] greater than 80 µg/mL, an MIC [2] of 20 µg/mL (≈ 42.2 µM) and an MIC [3] of 0.5 µg/mL (≈ 1.06 µM). It also gave an MIC ([4]; Proteus mirabilis, P. mirabilis 889, 5% chocolated horse blood agar, 18 hours, read-out: MIC) greater than 100 µg/mL, an MIC [5] of 1 µg/mL (≈ 2.11 µM) and an MIC [6] of 5 µg/mL (≈ 10.6 µM). It also gave an MIC [7] of 5 µg/mL (≈ 10.6 µM), an MIC [8] of 5 µg/mL (≈ 10.6 µM) and an MIC [9] of 0.025 µg/mL (≈ 0.0528 µM). For the same compound, the MIC [10] was 5 µg/mL (≈ 10.6 µM), the MIC [11] was 1 µg/mL (≈ 2.11 µM) and the MIC ([12]; NB12, 144 h) was 0.5 µg/mL (≈ 1.06 µM). The MIC ([13]; Corynebacterium xerosis 9755, 5% chocolated horse blood agar, 18 hours, read-out: MIC) was greater than 100 µg/mL, the MIC [14] was 5 µg/mL (≈ 10.6 µM) and the MIC [15] was 0.5 µg/mL (≈ 1.06 µM). The MIC ([16]; Strep. faecalis I, 5% chocolated horse blood agar, 18 hours, read-out: MIC) was greater than 100 µg/mL, the MIC [17] was 1.25 µg/mL (≈ 2.64 µM) and the MIC [18] was 0.5 µg/mL (≈ 1.06 µM). The MIC ([19]; Micrococcus luteus, Sarcina lutea 8340, 5% chocolated horse blood agar, 18 hours, read-out: MIC) was greater than 100 µg/mL, the MIC [20] was 40 µg/mL (≈ 84.5 µM) and the MIC ([21]; Neisseria catarrhalis 1502, 5% chocolated horse blood agar, 18 hours, read-out: MIC) was 10 µg/mL (≈ 21.1 µM). It also gave an MIC [22] of 1 µg/mL (≈ 2.11 µM), an MIC [23] of 5 µg/mL (≈ 10.6 µM) and an MIC [24] of 0.5 µg/mL (≈ 1.06 µM). It also gave an MIC [25] of 20 µg/mL (≈ 42.2 µM), an MIC [26] greater than 80 µg/mL and an MIC [27] of 5 µg/mL (≈ 10.6 µM). For the same compound, the MIC [28] was 0.5 µg/mL (≈ 1.06 µM), the MIC [29] was 0.05 µg/mL (≈ 0.106 µM) and the MIC ([30]; Haemophilus influenzae Wy21, 5% chocolated horse blood agar, 18 hours, read-out: MIC) was 2.5 µg/mL (≈ 5.28 µM). It also gave an MIC [31] of 1 µg/mL (≈ 2.11 µM), an MIC ([32]; K. aerogenes A, 5% chocolated horse blood agar, 18 hours, read-out: MIC) greater than 100 µg/mL and an MIC ([33]; NCTC10662, Ps. aeruginosa NCTC 10662, 5% chocolated horse blood agar, 18 hours, read-out: MIC) greater than 100 µg/mL. The MIC [34] was greater than 80 µg/mL and the MIC [35] was 0.5 µg/mL (≈ 1.06 µM).

With `COC(=O)CCCCCCCc1cnc(/C=C(\C)C[C@@H]2OC[C@H](C[C@@H]3O[C@H]3[C@@H](C)[C@H](C)O)[C@@H](O)[C@H]2O)o1` [Example 7, 5-(7-Methoxycarbonylheptyl)-2-(1-normon-2-yl)oxazole A] the MIC [1] was greater than 80 µg/mL, the MIC [2] was 40 µg/mL (≈ 76.4 µM) and the MIC ([3]; M. hyorhinis ATCC 23234, 6 days, 37° C., read-out: MIC) was 10 µg/mL (≈ 19.1 µM). For the same compound, the MIC ([4]; Proteus mirabilis, 889, 18 h) was greater than 100 µg/mL, the MIC ([5]; M. suipneumoniae J2206/183^b, 6 days, 37° C., read-out: MIC) was greater than 10 µg/mL and the MIC [6] was 40 µg/mL (≈ 76.4 µM). It also gave an MIC [7] of 20 µg/mL (≈ 38.2 µM), an MIC [8] of 25 µg/mL (≈ 47.7 µM) and an MIC [9] of 0.1 µg/mL (≈ 0.191 µM). The MIC [10] was 25 µg/mL (≈ 47.7 µM), the MIC ([11]; M. suipneumoniae TAM 6N, 6 days, 37° C., read-out: MIC) was greater than 10 µg/mL and the MIC ([12]; 144 h, M. suipneumoniae NB12, Friis broth, 0.9% agarose, 6 days, 37° C., read-out: MIC) was greater than 10 µg/mL. It also gave an MIC ([13]; Corynebacterium xerosis, 9755, 18 h) greater than 100 µg/mL, an MIC [14] of 25 µg/mL (≈ 47.7 µM) and an MIC ([15]; M. hyosynoviae ATCC 25591, 6 days, 37° C., read-out: MIC) of 5 µg/mL (≈ 9.55 µM). The MIC ([16]; 18 h) was greater than 100 µg/mL, the MIC [17] was 2.5 µg/mL (≈ 4.77 µM) and the MIC ([18]; M. suipneumoniae MS 16, 6 days, 37° C., read-out: MIC) was 10 µg/mL (≈ 19.1 µM). The MIC ([19]; Micrococcus luteus, 8340, 18 h) was greater than 100 µg/mL, the MIC [20] was greater than 80 µg/mL and the MIC ([21]; Neisseria, 1502, 18 h) was 5 µg/mL (≈ 9.55 µM). It also gave an MIC ([22]; M. suipneumoniae HK(2), 6 days, 37° C., read-out: MIC) greater than 10 µg/mL, an MIC [23] of 25 µg/mL (≈ 47.7 µM) and an MIC ([24]; M. suipneumoniae ATCC 25095, 6 days, 37° C., read-out: MIC) of 10 µg/mL (≈ 19.1 µM). The MIC [25] was 80 µg/mL (≈ 153 µM), the MIC [26] was greater than 80 µg/mL and the MIC [27] was 5 µg/mL (≈ 9.55 µM). The MIC ([28]; M. suipneumoniae LABER, 6 days, 37° C., read-out: MIC) was 10 µg/mL (≈ 19.1 µM), the MIC ([29]; M. bovigenitalium ATCC 14173, 6 days, 37° C., read-out: MIC) was 1 µg/mL (≈ 1.91 µM) and the MIC ([30]; Haemophilus influenzae, WY21, 18 h) was 1 µg/mL (≈ 1.91 µM). The MIC ([31]; M. suipneumoniae UCD 1, 6 days, 37° C., read-out: MIC) was greater than 10 µg/mL, the MIC ([32]; 18 h) was greater than 100 µg/mL and the MIC ([33]; NCTC10662, 18 h) was greater than 100 µg/mL. It also gave an MIC [34] of 40 µg/mL (≈ 76.4 µM) and an MIC ([35]; M. hyorhinis ATCC 25021, 6 days, 37° C., read-out: MIC) of 10 µg/mL (≈ 19.1 µM).
